The results in this text go back to ChEMBL document CHEMBL5604063, “ASAP - DENV-2 NS2B-NS3 protease fluorescence dose response” (2024).

The target in assay [1] is T1, Genome polyprotein (dengue virus type 2, UniProt P29990). The class given is functional, Thailand/16681/1984.
Assay [2] has as its target T1, Genome polyprotein. The class given is functional, Thailand/16681/1984. The source holds these as a separate data set.

Where “and” joins values, the source holds several entries; their conditions need not be identical. Equal entries are not always repeated.

As usually defined, the IC50 is the midpoint of a concentration-inhibition curve. Higher therefore signals lower potency.

T1 sequence (P29990 1346-1475 limits assumed): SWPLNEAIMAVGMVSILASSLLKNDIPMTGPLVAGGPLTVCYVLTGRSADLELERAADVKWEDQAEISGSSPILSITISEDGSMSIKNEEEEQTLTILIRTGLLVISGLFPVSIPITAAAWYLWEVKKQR
T1 sequence (P29990 1476-2093 limits assumed): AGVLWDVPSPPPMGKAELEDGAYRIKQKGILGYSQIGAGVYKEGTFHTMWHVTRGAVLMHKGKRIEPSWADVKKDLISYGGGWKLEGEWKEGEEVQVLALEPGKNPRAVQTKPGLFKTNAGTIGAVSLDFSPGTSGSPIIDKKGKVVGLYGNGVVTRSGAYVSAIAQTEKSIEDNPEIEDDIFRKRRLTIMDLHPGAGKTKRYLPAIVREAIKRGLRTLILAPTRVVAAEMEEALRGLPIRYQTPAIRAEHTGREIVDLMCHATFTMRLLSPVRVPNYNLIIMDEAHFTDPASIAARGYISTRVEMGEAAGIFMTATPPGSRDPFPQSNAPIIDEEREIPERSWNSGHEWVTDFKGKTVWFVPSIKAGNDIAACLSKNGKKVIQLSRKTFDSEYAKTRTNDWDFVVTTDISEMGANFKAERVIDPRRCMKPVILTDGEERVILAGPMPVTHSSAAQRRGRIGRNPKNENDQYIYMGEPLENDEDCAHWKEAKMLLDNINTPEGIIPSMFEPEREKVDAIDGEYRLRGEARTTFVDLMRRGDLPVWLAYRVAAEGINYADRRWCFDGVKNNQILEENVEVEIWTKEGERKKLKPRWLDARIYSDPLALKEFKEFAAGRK

For `CCCn1nc(C)c2c(C(=O)Nc3cccc(CN)c3)cc(C)nc21`, the IC50 against Genome polyprotein [1] was over 100 µM; at Genome polyprotein [2] it was over 99.5 µM.

As to `O=S(=O)(Nc1cccc(-c2nnn[nH]2)c1)c1cc(Cl)cc(C(F)(F)F)c1`, the results for the IC50 against Genome polyprotein [1] and at Genome polyprotein [2] were over 100 µM and over 99.5 µM, respectively.

In the case of `O=C(Nc1cc(-c2cccnc2)ccn1)c1cnc(C2CC2)s1`, the IC50 against Genome polyprotein [1] is over 100 µM; against Genome polyprotein [2] it was over 99.5 µM.

Consider `Cc1nc(C2(NC(=O)c3cccc4c3CC(=O)N4)CCC2)no1`, for which the values for the half-inhibitory concentration (IC50) against Genome polyprotein [1] and on Genome polyprotein [2] were over 100 µM and over 99.5 µM, respectively.

For `O=C(Nc1cc(Cl)cc(C(=O)Nc2cccc(C3(C(=O)O)CCC3)c2)c1)OCc1ccccc1`, the IC50 is 12.5 µM and 12.8 µM against Genome polyprotein [1]; 24.6 µM on Genome polyprotein [2].

In the case of `COCc1cc(Cl)cc(C(=O)Nc2cccc(CN)c2)c1`, the results for the IC50 on Genome polyprotein [1] and against Genome polyprotein [2] were over 100 µM and over 99.5 µM, respectively.

With `Cc1c(C(=O)Nc2cccc(CN)c2)cc(C2CCC2)n1C`, the IC50 at Genome polyprotein [1] was over 100 µM; against Genome polyprotein [2] it was over 99.5 µM.

With `O=C(Nc1cc(Cl)cc(C(=O)NCC2(CO)CCNCC2)c1)OCc1ccccc1`, the IC50 on Genome polyprotein [1] is over 100 µM; against Genome polyprotein [2], over 99.5 µM.

Regarding `NCc1ccc(I)c(NC(=O)c2cc(Cl)cc(NC(=O)OCc3ccccc3)c2)c1`, the IC50 is over 100 µM on Genome polyprotein [1] and 52.1 µM against Genome polyprotein [2].

Consider `COc1ncc(Cl)cc1C(=O)Nc1ccc2c(c1)CNC2`, for which the half-inhibitory concentration (IC50) was over 100 µM against Genome polyprotein [1] and over 99.5 µM against Genome polyprotein [2].

In the case of `C=CC[C@H](Nc1cc(CN)ccn1)c1cc(Cl)cc(NC(=O)OCc2ccccc2)c1`, the IC50 at Genome polyprotein [1] was over 100 µM; against Genome polyprotein [2], over 99.5 µM.

In the case of `CNC(=O)[C@H](Nc1cccc(C(=O)O)c1)c1cc(Cl)cc2[nH]ncc12`, the half-inhibitory concentration (IC50) is over 100 µM on Genome polyprotein [1] and over 99.5 µM against Genome polyprotein [2].

With `O=C(Nc1ccc2c(c1)CNC2)c1cccc2c3c([nH]c12)CCC3`, the IC50 against Genome polyprotein [1] was over 100 µM; against Genome polyprotein [2], over 99.5 µM.

For `CNC(=O)c1cccc(C(=O)Nc2ccc3c(c2)CNC3)c1`, the concentration for half-maximal inhibition (IC50) was over 100 µM against Genome polyprotein [1] and over 99.5 µM at Genome polyprotein [2].

Regarding `NCc1cccc(NC(=O)c2cc3c(c(NC(=O)OCc4ccccc4)c2)OCC3)c1`, the IC50 against Genome polyprotein [1] was over 100 µM; against Genome polyprotein [2] it was over 99.5 µM.

Consider `CC(C)NC(=O)C[C@H]1NCc2cc(NC(=O)c3cc(Cl)cc4[nH]ncc34)ccc21`, for which the figures for the IC50 against Genome polyprotein [1] and against Genome polyprotein [2] were over 100 µM and over 99.5 µM, respectively.

On to `Cc1nc(N2CCOCC2)sc1CC(=O)Nc1cccc(CN)c1`, for which the concentration for half-maximal inhibition (IC50) was over 100 µM at Genome polyprotein [1] and over 99.5 µM at Genome polyprotein [2].

With `O=C(Nc1ccc2c(c1)C(=O)OC2)c1ccc2c(c1)CNC2`, the IC50 is over 100 µM against Genome polyprotein [1] and over 99.5 µM on Genome polyprotein [2].

For `O=C(Nc1ccc2c(c1)CNC2)c1cc(Br)cc2cccnc12`, the values for the concentration for half-maximal inhibition (IC50) against Genome polyprotein [1] and on Genome polyprotein [2] were over 100 µM and over 99.5 µM, respectively.

For `N#C[C@H](Nc1ccc(CCC(=O)O)cn1)c1cc(Cl)cc(C2CC2)c1`, the IC50 against Genome polyprotein [1] is over 100 µM; at Genome polyprotein [2], over 99.5 µM.

`N#Cc1cccc2[nH]cc(CN3CCC(c4cscn4)CC3)c12`: the IC50 against Genome polyprotein [1] was over 100 µM; against Genome polyprotein [2], over 99.5 µM.

In the case of `NC[C@H]1C[C@@H]1NC(=O)c1cc(Cl)cc(NC(=O)OCc2ccccc2)c1`, the results for the IC50 at Genome polyprotein [1] and on Genome polyprotein [2] were over 100 µM and over 99.5 µM, respectively.

`Cc1c(C(=O)Nc2cc(C(=O)N(C)C3COC3)ccn2)cc(C2CC2)n1C`: the IC50 on Genome polyprotein [1] is over 100 µM; against Genome polyprotein [2] it was over 99.5 µM.

In the case of `O=C1Cc2c(cccc2C(=O)Nc2ccc3c(c2)CNC3)N1`, the IC50 against Genome polyprotein [1] is 45.6 µM and 19.1 µM; against Genome polyprotein [2], 11.8 µM and 17.4 µM and 20.7 µM.

Regarding `CCc1cc(C(=O)Nc2cccc(CN)c2)sc1C`, the IC50 was over 100 µM at Genome polyprotein [1] and over 99.5 µM at Genome polyprotein [2].

In the case of `O=C(O)CCCc1cccc(NC(=O)c2cc(Cl)cc(NC(=O)OCc3ccccc3)c2)c1`, the IC50 was 23.7 µM and 19.7 µM against Genome polyprotein [1]; 37.2 µM on Genome polyprotein [2].

`Cc1ccc(C)n1-c1ccc(Cl)cc1C(=O)Nc1ccc2c(c1)CNC2`: the IC50 against Genome polyprotein [1] is over 100 µM; against Genome polyprotein [2] it was over 99.5 µM.

As for `Cn1cc2c(C(=O)Nc3ccc4c(c3)CNC4)cc(Cl)cc2n1`, the IC50 is over 100 µM at Genome polyprotein [1] and over 99.5 µM on Genome polyprotein [2].

With `Cc1csc(N2CCN(Cc3c[nH]c4ccccc34)CC2)n1`, the results for the 50% inhibitory concentration (IC50) on Genome polyprotein [1] and against Genome polyprotein [2] were over 100 µM and over 99.5 µM, respectively.

On to `CCNCc1ccc(NC(=O)c2cc(Cl)cc3[nH]ncc23)cc1`, for which the figures for the half-inhibitory concentration (IC50) against Genome polyprotein [1] and against Genome polyprotein [2] were over 100 µM and over 99.5 µM, respectively.

For the compound `O=C(Nc1cc([C@H]2CCOC2)ccn1)c1cc(Br)cc2[nH]ccc12`, the values for the IC50 against Genome polyprotein [1] and against Genome polyprotein [2] were over 100 µM and over 99.5 µM, respectively.

For `CC(C)CCN1Cc2ccc(NC(=O)c3cc(Cl)cc4[nH]ncc34)cc2C1`, the IC50 against Genome polyprotein [1] was over 100 µM; at Genome polyprotein [2], over 99.5 µM.

As to `CO[C@H]1C[C@H](n2ncc3c(C(=O)Nc4ccc5c(c4)CNC5)cc(Cl)cc32)C1`, the IC50 against Genome polyprotein [1] is over 100 µM; at Genome polyprotein [2], over 99.5 µM.

As to `O=C(Nc1cc(-c2cccnc2)ccn1)c1cc2n(n1)CC1(CC1)C2`, the IC50 against Genome polyprotein [1] is over 100 µM; against Genome polyprotein [2], over 99.5 µM.

In the case of `CNC(=O)c1cc(Br)cc([C@H](Nc2ccc3c(c2)CNC3)C(=O)NCC(F)F)c1`, the IC50 against Genome polyprotein [1] was over 100 µM; against Genome polyprotein [2] it was over 99.5 µM.

Take `COCCO[C@]1(C)C(=O)Nc2cc(F)cc(C(=O)Nc3ccc4c(c3)CNC4)c21`: the results for the IC50 at Genome polyprotein [1] and against Genome polyprotein [2] were over 100 µM and over 99.5 µM, respectively.

With `O=C(Nc1ccc2c(c1)CNC2)c1ccc2[nH]cc(C3CCNCC3)c2c1`, the IC50 is 75.9 µM against Genome polyprotein [1]; 19.5 µM and 31.3 µM at Genome polyprotein [2].

For `CC(C)(C)OC(=O)N1Cc2ccc(NC(=O)c3cc(Cl)cc4[nH]ncc34)cc2C1`, the figures for the IC50 on Genome polyprotein [1] and against Genome polyprotein [2] were over 100 µM and over 99.5 µM, respectively.

In the case of `c1cc([C@@H]2C[C@H]2c2ccc3c(c2)CNC3)c2cn[nH]c2c1`, the half-maximal inhibitory concentration (IC50) against Genome polyprotein [1] was over 100 µM; against Genome polyprotein [2] it was over 99.5 µM.

Regarding `COc1ccc(-c2nc3c(C(=O)Nc4ccc5c(c4)CNC5)cc(F)cc3[nH]2)cc1`, the results for the IC50 against Genome polyprotein [1] and against Genome polyprotein [2] were over 100 µM and over 99.5 µM, respectively.

With `NCc1cccc(NC(=O)c2cc(Cl)cc(C(N)=O)c2)c1`, the IC50 against Genome polyprotein [1] is over 100 µM; against Genome polyprotein [2], over 99.5 µM.

With `O=C1Cc2c(cccc2C(=O)Nc2cccc(Cc3nn[nH]n3)c2)N1`, the values for the half-maximal inhibitory concentration (IC50) at Genome polyprotein [1] and on Genome polyprotein [2] were over 100 µM and over 99.5 µM, respectively.

As for `CC(C)(C)OC(=O)NCc1cccc(NC(=O)C[C@H](N)c2ccc(OCc3ccccc3)c(Br)c2)c1`, the figures for the IC50 at Genome polyprotein [1] and at Genome polyprotein [2] were over 100 µM and over 99.5 µM, respectively.

Take `CCc1ccc(-c2nc3c(C(=O)Nc4ccc5c(c4)CNC5)cc(Cl)cc3[nH]2)cc1`: the 50% inhibitory concentration (IC50) was 42.9 µM against Genome polyprotein [1] and 21.5 µM against Genome polyprotein [2].

Take `O=C(Nc1cccc(-n2nn[nH]c2=O)c1)c1cc(Cl)cc2c1CCC2`: the concentration for half-maximal inhibition (IC50) against Genome polyprotein [1] is over 100 µM; against Genome polyprotein [2] it was over 99.5 µM.

In the case of `NCCc1cccc(NC(=O)c2cccc3c2CC(=O)N3)c1`, the IC50 at Genome polyprotein [1] is over 100 µM; at Genome polyprotein [2] it was over 99.5 µM.

`O=C(O)C1CCC2(CC1)CC(Cc1c[nH]c3ccc(Cl)cc13)C2` (stereo not given): the IC50 against Genome polyprotein [1] was 31.4 µM; against Genome polyprotein [2], 59.2 µM.

Take `Cn1cc(CCc2nc3c(C(=O)Nc4ccc5c(c4)CNC5)cc(Cl)cc3[nH]2)cn1`: the half-maximal inhibitory concentration (IC50) against Genome polyprotein [1] was 19.4 µM and 21.6 µM; against Genome polyprotein [2] it was 32.5 µM.

In the case of `CCc1cc(Br)cc2c(Cc3ccc(-c4nnn[nH]4)cc3)c[nH]c12`, the IC50 is 8.03 µM and 9.26 µM on Genome polyprotein [1]; 12 µM against Genome polyprotein [2].

For the compound `N#CC1(S(=O)(=O)N2CCC([C@H](NC(=O)OCc3ccccc3)C(=O)Nc3cccc(CN)c3)CC2)CCC1`, the concentration for half-maximal inhibition (IC50) against Genome polyprotein [1] was over 100 µM; at Genome polyprotein [2], 81.8 µM.
